The record followed here is PubChem BioAssay (NCI).

Assay in all cases: growth of human tumour cells (NCI), 48 h
For experiment [1], the system named is 786-0 renal.
Experiment [2] has as its system BT-549 breast.
The subject of experiment [3] is HS 578T breast.
The test system of experiment [4] is MCF7 breast.
Experiment [5] deals with MDA-MB-231 breast.
In experiment [6] the test system is MDA-MB-435.
The test system of experiment [7] is MOLT-4 leukemia.
For experiment [8], the system named is NCI-H226 lung.
For experiment [9], the system named is OVCAR-3 ovarian.
Experiment [10] deals with OVCAR-4 ovarian.
Experiment [11] relates to RPMI-8226 leukemia.
Experiment [12] deals with SF-268 CNS.
Experiment [13] deals with SN12C renal.
For experiment [14], the system named is UACC-257 melanoma.
Experiment [15] relates to UACC-62 melanoma.
Experiment [16] deals with RXF 393 renal.
In experiment [17] the test system is SNB-75 CNS.

Each structure is given as a SMILES string.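 All cell lines were grown in 96-well plates and treated with compound for 48 hours. Here, GI50 denotes the concentration required for 50% inhibition of growth. TGI is the concentration that stops growth completely.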

With `CCN1C(=O)c2ccccc2C1(O)c1ccc(Cl)cc1` (stereo not given), the TGI in experiment [1], in experiment [2], in experiment [3], in [4], in [5] and in experiment [6] was over 100 µM throughout. The TGI in experiment [7] was over 100 µM; in experiment [8], 74.3 µM; in experiment [9], over 100 µM; in experiment [10], over 100 µM; in experiment [11], over 100 µM; in experiment [12], over 100 µM. Besides, the TGI in experiment [13], in [14] and in experiment [15] was over 100 µM in each case.

As to `COc1ccc(C2=Nn3c(nc4sc(-c5ccccc5)cc4c3=O)SC2)cc1`, the TGI in [1], in experiment [2], in experiment [3], in experiment [4], in experiment [5] and in [6] was over 100 µM throughout. For the same compound, the TGI in [7], in experiment [8], in [9], in experiment [11], in experiment [12] and in experiment [13] was over 100 µM in each case. For the same compound, the TGI in experiment [14] and in experiment [15] was over 100 µM each time.

As for `O=C(O)c1nc2ccccc2nc1Nc1ccc(F)cc1`, the TGI in experiment [1] was over 100 µM; in [2], over 100 µM; in [3], over 100 µM; in experiment [4], 74.8 µM; in [6] it was over 100 µM; in experiment [7], over 100 µM. Also, the TGI in [8] was over 100 µM; in experiment [9] it was 77.5 µM; in [10], over 100 µM; in [11] it was over 100 µM; in [16], 51.8 µM; in [12], 99.2 µM. Also, the TGI in [17] was 81.8 µM; in experiment [14], over 100 µM; in experiment [15], 77.6 µM.

As to `O=C1CSC(c2ccc(Cl)cc2)N1c1ccc(-c2ccc(-n3c(-c4ccccc4)nc4ccccc4c3=O)cc2)cc1` (stereo not given), the TGI in [1] was over 100 µM; in experiment [2], over 100 µM; in experiment [3], over 100 µM; in [4] it was over 100 µM; in [5], over 100 µM; in experiment [6] it was 71.3 µM. Also, the TGI in [7] was 83.6 µM; in [9], over 100 µM; in experiment [10] it was 56.8 µM; in experiment [11] it was over 100 µM; in [12], over 100 µM; in experiment [13], over 100 µM. In addition, the TGI in [17] was 26.6 µM; in experiment [14], over 100 µM; in experiment [15], over 100 µM.

Consider `O=C(Nc1sccc1S(=O)(=O)c1ccc(Cl)cc1)C(F)(F)F`, for which the TGI was over 100 µM in [1]; over 100 µM in experiment [2]; 72.1 µM in experiment [3]; over 100 µM in experiment [4]; 37.3 µM in experiment [5]; over 100 µM in [6]. Also, the TGI in [7] is 41.1 µM; in experiment [8], over 100 µM; in experiment [9], over 100 µM; in experiment [10], over 100 µM; in experiment [11], 31.4 µM; in [12], 83.6 µM. The TGI was 54.6 µM in experiment [13], 71.6 µM in experiment [17], over 100 µM in experiment [14] and over 100 µM in experiment [15].

In the case of `COc1ccc(OC)c(C#Cc2ccc(OC)c(C(=O)NCCc3ccc(F)cc3)c2)c1`, the TGI was over 100 µM in experiment [1]; over 100 µM in experiment [2]; over 100 µM in [3]; over 100 µM in experiment [4]; 4.62 µM in experiment [6]; over 100 µM in experiment [7]. In addition, the TGI in experiment [10], in [11], in [12], in [13], in experiment [14] and in [15] was over 100 µM each time. The GI50 in experiment [13] was over 100 µM; in [15], 5.96 µM.

Turning to `O=C1C[C@@H](Sc2ccccc2)C2(OCCO2)[C@H]2ON3CCC[C@@H]3[C@@H]12`, the TGI was 4.83 µM in [1]; 18.9 µM in [2]; 13.1 µM in [3]; 17.2 µM in experiment [4]; 7.67 µM in experiment [5]; 10 µM in experiment [6]. The TGI is 8.7 µM in [7]; 34.5 µM in experiment [8]; 9.15 µM in experiment [9]; 19.6 µM in experiment [10]; 8.94 µM in experiment [11]; 12.1 µM in experiment [12]. Besides, the TGI in [13] was 7.52 µM; in experiment [14], 29.3 µM; in [15], 24.3 µM.

As for `COc1ccc2oc(=O)c3c(c2c1C)OC(C)(C)C=C3`, the TGI in experiment [1], in [2], in [3], in [4], in [5] and in [6] was over 100 µM in each case. The TGI in experiment [7], in experiment [8], in experiment [9], in experiment [11], in experiment [12] and in experiment [13] was over 100 µM each time. Further, the TGI in experiment [17], in experiment [14] and in experiment [15] was over 100 µM in each case.

`COc1cc2nc(-c3ccccc3F)[nH]c(=O)c2cc1OC`: the TGI in experiment [1], in [2], in experiment [3], in experiment [4], in [5] and in [7] was over 100 µM throughout. In addition, the TGI in experiment [8], in experiment [9], in experiment [10], in experiment [11], in experiment [16] and in experiment [12] was over 100 µM in each case. In addition, the TGI in experiment [13], in experiment [17], in experiment [14] and in [15] was over 100 µM in each case.
